“And” between values parts separate entries of the source, which are not always exact repeats. Identical values can stand only once.
Assay: Pilot PK study in Sprague Dawley rats (serum Copaxone by ELISA)
Format: in vivo
Settings: Copaxone 20 mg/kg B.wt
Experimental: A series of serum samples, each containing Copaxone spiked at known concentration and forming a set of calibrator standards to generate a calibration curve to quantify Copaxone in the serum samples of the given species was made in the serum with Copaxone at levels […], 30000 ng/ml, 4000 ng/ml, 2000 ng/ml, 1000 ng/ml, 500 ng/ml, 250 ng/ml, 125 ng/ml, 62.5 ng/ml, 31.3 ng/ml, 7.8 ng/ml and 3.9 ng/ml in neat serum.
ELISA plate is precoated with Polyclonal Rabbit Anti Copaxone antibodies and the appropriately diluted serum samples constituting the calibrator standards and samples for analysis were incubated for binding to the coated Anti Copaxone antibodies and unbound and poorly bound serum components were separated during washing with PBST (Phosphate buffered saline with 0.1% tween 20).The bound Copaxone was detected using biotin labeled Polyclonal Rabbit Anti Copaxone antibodies and streptavidin Alkaline phosphatase conjugate. Substrate was added to the wells and the blue colored signal obtained at 640 nm for the test samples is compared with the calibration curve prepared from concentration-response relationship of the calibrators to determine the unknown concentration of Copaxone in the serum samples.
Three male Sprague Dawley rats were dosed with Copaxone at 20 mg per kg body weight with a dosing volume of […] at the dose concentration of 20mg/ml per day. The dosage was selected based on minimum feasible dose (based on dose volume of 1 ml per kg) for the given strength of 20 mg/ml. Each animal was weighed and dosed with Copaxone @ 20 mg/kg B.wt. Blood samples were collected in 10 μl of Protease inhibitor from each animal at the time point 5 min, 10 min, 15 min, 20 min, 30 min, 45 min, 1, 2, 3, 4, 6, 10 and 24 hours. The blood samples were stored on wet ice for serum separation. The serum was separated and stored at −80° C. till the shipment. The samples till 24 hours were shipped in Dry Ice […].

[1] = Mean of three male Sprague Dawley rats
[2] = individual male Sprague Dawley rat (Rat 1, 2, 3)

AUC0-inf [1]: 25507 ng·min/mL | AUC0-t [1]: 25211.81 ng·min/mL | AUC % Extrap_obs (Should be < 5%) [1]: 1.24% | Cmax [1]: 1824.12 ng/mL | T1/2 [1]: 27.45 min | Tmax [1]: 11.67 min | AUC % Extrap_obs (Should be < 5%) [2]: 0.63% and 1.87% and 1.22% | Tmax [2]: 15 min and 10 min | T1/2 (individual male Sprague Dawley rat (Rat 1, 2, 3), samples 5 min to 24 hours): 31.18 min and 23.39 min and 27.79 min
Substance: Glatiramer acetate [Copaxone]
AUC0-inf [2]: 25654.06 ng·min/mL and 15705.6 ng·min/mL and 35161.34 ng·min/mL | AUC0-t [2]: 25491.53 ng·min/mL and 15411.63 ng·min/mL and 34732.28 ng·min/mL | Cmax [2]: 968.69 ng/mL and 510.79 ng/mL and 3992.88 ng/mL

— US20150031056A1, “DEVELOPMENT OF SPECIFIC IMMUNOASSAY CRITICAL REAGENTS FOR PHARMACOKINETIC ASSESSMENTS OF PEPTIDE POLYMERS IN PRECLINICAL AND CLINICAL MATRICES” (priority 2011, published 2015)
